Results published in PubChem BioAssay AID330 (DTP/NCI, 2004).
Values joined by “and” are separate entries in the source; they are usually repeats but may differ in a detail not shown here. Identical values can stand only once. Inconclusive results and toxic doses are left out. How the source made its calls: active means survival T/C of 150% or more; inactive means T/C below 125% in these data.

Tested on: P388 leukemia ip, CD2F1 mice, survival T/C
Test: NCI In Vivo Anticancer Drug Screen. Data for tumor model P388 Leukemia (intraperitoneal) in CD2F1 (CDF1) mice
Conditions: endpoint: median survival time, higher = longer survival
Summary of the method: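 Mice carrying the transplanted tumor received test compound or vehicle. Survival was recorded in each group, and the value is the treated-group measurement divided by that of the vehicle-treated control group.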

[1] = dose: 200.0 mg/kg/injection, schedule: Q01DX001 (ip), vehicle: saline with Tween-80
[2] = dose: 400.0 mg/kg/injection, schedule: Q01DX001 (ip), vehicle: saline with Tween-80
[3] = dose: 50.0 mg/kg/injection, schedule: Q01DX009 (ip), vehicle: saline with Tween-80
[4] = dose: 50.0 mg/kg/injection, schedule: Q01DX005 (ip), vehicle: saline with Tween-80
[5] = dose: 100.0 mg/kg/injection, schedule: Q01DX005 (ip), vehicle: saline with Tween-80
[6] = dose: 200.0 mg/kg/injection, schedule: Q01DX005 (ip), vehicle: saline with Tween-80

Measured: T/C

CS(=O)(=O)C#CCCCCCCC#CS(C)(=O)=O
inactive: dose: 6.25 mg/kg/injection, schedule: Q04DX002 (ip), vehicle: saline 104 % of control | dose: 12.5 mg/kg/injection, schedule: Q04DX002 (ip), vehicle: saline 97 % of control | dose: 25.0 mg/kg/injection, schedule: Q04DX002 (ip), vehicle: saline 102 % of control

Cc1cccc(N=Nc2c(-c3ccccc3)nn(C(=S)S)c2C)c1C
inactive: dose: 12.5 mg/kg/injection, schedule: Q01DX001 (ip), vehicle: saline with Tween-80 100 % of control | dose: 25.0 mg/kg/injection, schedule: Q01DX001 (ip), vehicle: saline with Tween-80 96 % of control | dose: 50.0 mg/kg/injection, schedule: Q01DX001 (ip), vehicle: saline with Tween-80 96 % of control | [1] 91 % of control | [2] 99 % of control

CC1(c2ccccc2)c2ccccc2N(c2ccccc2)C(=O)C1O (configuration not stated)
inactive: dose: 100.0 mg/kg/injection, schedule: Q04DX003 (ip), vehicle: Klucel (hydroxypropylcellulose) (HPC) 101 % of control and 109 % of control | dose: 200.0 mg/kg/injection, schedule: Q04DX003 (ip), vehicle: Klucel (hydroxypropylcellulose) (HPC) 100 % of control and 107 % of control | dose: 400.0 mg/kg/injection, schedule: Q04DX003 (ip), vehicle: Klucel (hydroxypropylcellulose) (HPC) 100 % of control and 109 % of control

FC(F)(F)c1ccc(-c2ccc(OCCN3CCCC3)cc2)cc1
inactive: dose: 12.5 mg/kg/injection, schedule: Q01DX009 (ip), vehicle: saline with Tween-80 86 % of control | dose: 25.0 mg/kg/injection, schedule: Q01DX009 (ip), vehicle: saline with Tween-80 86 % of control | [3] 86 % of control | dose: 50.0 mg/kg/injection, schedule: Q04DX003 (ip), vehicle: saline sonified 87 % of control

COC1CCCCC1C(=O)C(C#N)C1CCCCC1C1CCCCC1 (configuration not stated)
inactive: [4] 100 % of control | [5] 98 % of control | [6] 96 % of control

CCOc1c(C)cc(Cc2ccc3c(c2)OCO3)cc1C
inactive: [4] 108 % of control | [5] 101 % of control | [6] 92 % of control

C/C=C1/CN2CCC34c5ccccc5N(C)C23C2CC1C4(C(=O)OC)C(O)O2 (configuration not stated)
inactive: dose: 9.25 mg/kg/injection, schedule: Q01DX005 (ip), vehicle: saline + Tween-80 + alcohol 114 % of control | dose: 18.5 mg/kg/injection, schedule: Q01DX005 (ip), vehicle: saline + Tween-80 + alcohol 93 % of control | dose: 37.0 mg/kg/injection, schedule: Q01DX005 (ip), vehicle: saline + Tween-80 + alcohol 100 % of control | dose: 74.0 mg/kg/injection, schedule: Q01DX005 (ip), vehicle: saline + Tween-80 + alcohol 100 % of control

O=C(O)CCCNC1=CC(=O)c2ccccc2C1=O
inactive: dose: 25.0 mg/kg/injection, schedule: Q04DX003 (ip), vehicle: saline with Tween-80 101 % of control | dose: 50.0 mg/kg/injection, schedule: Q04DX003 (ip), vehicle: saline with Tween-80 104 % of control | dose: 100.0 mg/kg/injection, schedule: Q04DX003 (ip), vehicle: saline with Tween-80 102 % of control and 86 % of control

Cc1ccc(CSCc2c(CSCc3ccc(C)cc3)c(CSCc3ccc(C)cc3)c(CSCc3ccc(C)cc3)c(CSCc3ccc(C)cc3)c2CSCc2ccc(C)cc2)cc1
inactive: [3] 92 % of control | dose: 100.0 mg/kg/injection, schedule: Q01DX009 (ip), vehicle: saline with Tween-80 97 % of control | dose: 200.0 mg/kg/injection, schedule: Q01DX009 (ip), vehicle: saline with Tween-80 86 % of control

CNC(=S)N/N=C/c1nc2ccccc2c(=O)n1-c1ccc(Cl)cc1
inactive: dose: 100.0 mg/kg/injection, schedule: Q01DX001 (ip), vehicle: saline with Tween-80 102 % of control | [1] 98 % of control | [2] 92 % of control

Cc1cc(C)c2c(c1)sc1n[nH]c(=S)n12
inactive: dose: 50.0 mg/kg/injection, schedule: Q01DX009 (ip), vehicle: Klucel (hydroxypropylcellulose) (HPC) 98 % of control | dose: 100.0 mg/kg/injection, schedule: Q01DX009 (ip), vehicle: Klucel (hydroxypropylcellulose) (HPC) 90 % of control | dose: 200.0 mg/kg/injection, schedule: Q01DX009 (ip), vehicle: Klucel (hydroxypropylcellulose) (HPC) 90 % of control
